Assays:
albino Swiss I.C.R. mice [1] = assay: Thermal analgesia, 55° C. hot-plate technique; assay type: in vivo; conditions: for Jumping time in sec. x ± S.E.M.: 50 mg/kg intraperitoneally, 30 minutes after dosing, 55° C. hot-plate, average ± standard error of the mean, control 64 ± 7.911
Description: The thermal analgesic effect has been studied in albino Swiss I.C.R. mice. The 55° C. hot-plate technique has been used. Batches of 10 mice were made.
The products under study were administered intraperitoneally. After 30 minutes the mice were placed on the hot-plate and note was made of the time it took them to jump, in seconds. Batches were made of control animals injected only with distilled water.

white Swiss I.C.R. mice = assay: Chemical analgesia, acetic acid writhing technique; assay type: in vivo; conditions: for No. of writhes x ± S.E.M: 25 mg/kg intraperitoneally, 0.25 ml of 1% acetic acid after 30 minutes, writhes noted 20 minutes after acetic acid, control 130 ± 7.764
Description: The analgesic effect has been studied in white Swiss I.C.R. mice, with the acetic acid writhing technique. Batches of 10 mice were made.
The products under study were administered intraperitoneally, and after 30 minutes 0.25 ml of 1% acetic acid were injected intraperitoneally. A batch of control animals received only the acetic acid. The number of writhes in each mouse were noted 20 minutes after the acetic acid was administered.

albino Swiss I.C.R. mice [2] = assay: Acute toxicity (LD50, intraperitoneal, Litchfield-Wilcoxen); assay type: in vivo; conditions: both sexes, deaths noted 48 hours after treatment
Description: (§1) Acute toxicity studies have been made in albino Swiss I.C.R. mice, of both sexes, of a weight of 30±2 g, kept without food for 24 hours prior to the experiment. Temperature and relative humidity of the atmosphere were kept constant. The products were administered intraperitoneally, the number of deaths having been noted 48 hours after treatment. The lethal dose (LD50) was calculated by the Litchfield-Wilcoxen test.

[3] = as above; assay type: in vivo, albino Swiss I.C.R. mice; conditions: mouse, in vivo, ip, mice, both sexes, deaths noted 48 hours after treatment
Description: as §1

CCC(=O)O[C@](Cc1ccccc1)(c1ccccc1)[C@H](C)CN(C)C [Dextropropoxyphene, reference compound]
Jumping time in sec. x ± S.E.M. (albino Swiss I.C.R. mice [1]): 164 ± 7.319 s
No. of writhes x ± S.E.M (white Swiss I.C.R. mice): 68.4 ± 5.258
LD50 (albino Swiss I.C.R. mice [2]): 140 mg/kg

CC1=CC2Cc3ccsc3C(C1)N2C (stereo not drawn) [I, 7,10-dimethyl-5,9-imino-4,5,8,9-tetrahydrocyclooct[b]thiophene]
Jumping time in sec. x ± S.E.M. (albino Swiss I.C.R. mice [1]): 114.2 ± 11.168 s
thermal analgesic activity (in words) (albino Swiss I.C.R. mice [1]; hot-plate, compared with dextropropoxyphene): shows analgesic activity, but of less potency than that of dextropropoxyphene
No. of writhes x ± S.E.M (white Swiss I.C.R. mice): 85.3 ± 13.915
Signif. of differences, Dextropropox. (white Swiss I.C.R. mice; No. of writhes, 25 mg/kg, versus dextropropoxyphene): N.S.
chemical analgesic activity (in words) (white Swiss I.C.R. mice; acetic acid writhing, compared with dextropropoxyphene): shows the same analgesic activity as dextropropoxyphene
LD50 at 48 h [3]: 159 mg/kg
